Calls of active or inactive are those of the source.
Experiments:
[1] = inhibitors of clade B AD8 Env fusion, dose response, cell-based, cherry-pick (AID 652062); format: functional;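 also: luciferase signal from cell-cell fusion driven by HIV-1 clade B AD8 Env; potency is for inhibitors of fusion seen as a drop in luminescence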
[2] = ZM109 Env clade C HIV-1 fusion inhibitors, dose response, HeLa effector, CEM target cells, luciferase, cherry-pick (AID 652058); format: functional, cell-based
[3] = off-target signal loss in HeLa-CEM21 co-culture – HeLa F-luc CTL cells, cherry-picked, counter-screen for HIV-1 Env fusion inhibitor project, dose response (AID 652040); format: functional, cell-based;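 also: potency for signal decrease marking cytotoxic or nonspecific inhibition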
[4] = inhibitors of HIV Env-driven cell fusion, dose response, cherry-pick (AID 652057); format: functional, cell-based
[5] = Luminescence Cell-Based Dose Response HTS to Identify Activators of Luciferase Translation or Activity in H4 […] Cells. [Related pubchem assays: 1829 (Project Summary), 1814 (Primary HTS)]; format: functional
H4 = experiment: Luminescence Cell-Based Dose Response HTS to Identify Activators of 5'UTR Stem-Loop Driven Prion Protein mRNA Translation in H4 Neuroglioblastoma Cells. [Related pubchem assays: 1829 (Project Summary), 1814 (Primary HTS)]; format: functional; details: Homo sapiens
[6] = target: T1, Oxysterols receptor LXR-beta (Homo sapiens, UniProt P55055); format: functional, cell-based;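 also: agonist activity at LXR measured by a cell-based luminescence readout across a dose range, run as a counterscreen for daf-12 agonists; HEK293 cells with Gal4-LXR fusion and GAL4-driven luciferase reporter; potency for activation of Gal4-LXR reporter so compounds are agonists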
T1 sequence (P55055 whole entry): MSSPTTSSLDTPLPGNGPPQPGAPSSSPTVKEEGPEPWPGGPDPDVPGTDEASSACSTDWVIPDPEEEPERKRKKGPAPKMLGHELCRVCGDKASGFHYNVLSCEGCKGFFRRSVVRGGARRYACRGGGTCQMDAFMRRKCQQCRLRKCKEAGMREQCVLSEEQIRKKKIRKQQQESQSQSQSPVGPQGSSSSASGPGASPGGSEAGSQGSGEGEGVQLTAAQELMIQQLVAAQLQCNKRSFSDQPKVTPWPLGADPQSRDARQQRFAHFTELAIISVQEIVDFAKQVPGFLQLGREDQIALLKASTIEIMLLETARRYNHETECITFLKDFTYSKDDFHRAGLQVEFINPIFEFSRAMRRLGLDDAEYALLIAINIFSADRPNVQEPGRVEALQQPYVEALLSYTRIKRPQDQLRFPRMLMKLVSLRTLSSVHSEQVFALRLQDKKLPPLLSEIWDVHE

[7] = target: T2, Methionyl-tRNA synthetase, putative (Trypanosoma brucei brucei, UniProt Q38C91); format: functional, Trypanosoma brucei brucei strain 927/4 GUTat10.1
T2 sequence (Q38C91 whole entry): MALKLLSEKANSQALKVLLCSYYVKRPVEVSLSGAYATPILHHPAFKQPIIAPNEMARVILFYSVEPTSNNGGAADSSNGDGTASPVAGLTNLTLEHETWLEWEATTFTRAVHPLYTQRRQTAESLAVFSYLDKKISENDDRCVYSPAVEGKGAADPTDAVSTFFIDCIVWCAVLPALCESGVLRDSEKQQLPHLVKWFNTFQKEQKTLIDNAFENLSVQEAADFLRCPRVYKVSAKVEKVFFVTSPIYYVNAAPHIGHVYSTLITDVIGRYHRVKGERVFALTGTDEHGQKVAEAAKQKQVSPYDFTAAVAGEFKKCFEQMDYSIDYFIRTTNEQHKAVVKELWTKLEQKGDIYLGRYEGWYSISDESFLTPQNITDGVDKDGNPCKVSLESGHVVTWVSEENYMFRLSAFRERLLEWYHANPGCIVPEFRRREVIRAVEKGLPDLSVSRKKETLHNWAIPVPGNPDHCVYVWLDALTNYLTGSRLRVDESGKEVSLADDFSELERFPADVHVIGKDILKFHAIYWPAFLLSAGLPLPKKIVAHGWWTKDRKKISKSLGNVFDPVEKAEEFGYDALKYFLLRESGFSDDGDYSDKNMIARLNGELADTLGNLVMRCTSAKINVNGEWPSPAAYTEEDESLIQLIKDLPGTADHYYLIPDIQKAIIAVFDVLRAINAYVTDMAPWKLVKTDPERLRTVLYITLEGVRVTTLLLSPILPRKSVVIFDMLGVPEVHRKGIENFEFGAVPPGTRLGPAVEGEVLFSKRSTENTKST

[8] = Counterscreen for inhibitors of Trypanosoma brucei methionyl tRNA synthetase (MetRS): Luminescence-based cell-based high throughput dose response assay to identify compounds that are cytotoxic to Jurkat human T lymphocyte cells.; format: functional
[9] = target: T2, Methionyl-tRNA synthetase, putative; format: functional, Trypanosoma brucei brucei strain 927/4 GUTat10.1; remark: listed apart in the source
[10] = target: T3, Corticotropin-releasing factor receptor 2/Corticotropin-releasing factor-binding protein (Homo sapiens, UniProt P24387+Q13324); experiment: activators of CRF receptor 2 with binding protein – uHTS hits, confirmation (AID 602473); format: functional; details: read-out: EC50_Mean
T3 sequence (Q13324 whole entry): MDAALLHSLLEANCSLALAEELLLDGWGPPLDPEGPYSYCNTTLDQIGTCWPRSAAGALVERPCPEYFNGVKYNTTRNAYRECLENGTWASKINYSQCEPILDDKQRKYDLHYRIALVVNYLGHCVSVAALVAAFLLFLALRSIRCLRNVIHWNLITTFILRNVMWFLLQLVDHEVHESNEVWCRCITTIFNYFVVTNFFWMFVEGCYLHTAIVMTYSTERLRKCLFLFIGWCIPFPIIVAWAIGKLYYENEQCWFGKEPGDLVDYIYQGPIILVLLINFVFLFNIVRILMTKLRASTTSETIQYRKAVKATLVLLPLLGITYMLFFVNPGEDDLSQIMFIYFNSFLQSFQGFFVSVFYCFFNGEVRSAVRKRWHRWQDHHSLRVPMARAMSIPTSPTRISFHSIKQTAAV
T3 sequence (P24387 whole entry): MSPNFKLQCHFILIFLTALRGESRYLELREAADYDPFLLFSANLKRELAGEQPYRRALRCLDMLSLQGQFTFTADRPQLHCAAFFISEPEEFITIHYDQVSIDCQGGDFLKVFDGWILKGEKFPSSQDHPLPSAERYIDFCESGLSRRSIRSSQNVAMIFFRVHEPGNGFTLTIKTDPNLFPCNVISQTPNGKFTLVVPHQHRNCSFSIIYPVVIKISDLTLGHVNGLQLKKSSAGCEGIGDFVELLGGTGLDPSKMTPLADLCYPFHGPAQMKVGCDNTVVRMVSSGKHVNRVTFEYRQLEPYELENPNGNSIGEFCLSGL

[11] = target: T3, Corticotropin-releasing factor receptor 2/Corticotropin-releasing factor-binding protein; experiment: Dose Response confirmation of uHTS hits for small molecule antagonists of the CRF-binding protein and CRF-R2 receptor complex.; format: functional; details: read-out: IC50_Mean
[12] = CRF-BP/CRF-R2 complex antagonists, dose response, cell-based, uHTS hits, 384-well (AID 651639); format: functional, Homo sapiens; details: read-out: IC50_Mean
[13] = inhibitors of SNCA 5'UTR-driven reporter translation, confirmation, H4 neuroglioma cells, luminescence (AID 1988); format: functional, cell-based
[14] = inhibitors of intracellular T. cruzi replication, confirmation, NIH3T3 host cells, beta-gal luminescence (AID 2044); format: functional, cell-based;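 also: intracellular parasites grown in NIH/3T3 mouse fibroblasts as host cells; luminescent beta-galactosidase reporter signal from transgenic T. cruzi replicating inside host cells; inhibitors lower the luminescence signal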
[15] = inhibitors of firefly luciferase expression or activity, dose response, H4 neuroglioma cells, luminescence (AID 1990); format: functional, cell-based
[16] = Luminescence Cell-Based Dose Response HTS to Identify Inhibitors of 5'UTR Stem-Loop Driven Prion Protein mRNA Translation in H4 Neuroglioblastoma Cells. [Related pubchem assays: 1827 (Project Summary), 1813 (Primary HTS)]; format: functional
INS1 = experiment: beta cell apoptosis inhibitors, cytokine rescue, dose response, luminescence, retest (AID 449756); format: functional, cell-based; details: Rattus norvegicus;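 also: cell death triggered by IL-1 beta plus TNF-alpha plus IFN-gamma mixture; protective hits raise ATP signal compared with cytokine alone wells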
[17] = cytotoxicity in HEK-293T cells, dose response, cytotoxicity control for TCR NF-kB inhibitor project, luminescence, T-cell screen hits (AID 489026); format: functional, cell-based;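 also: cells exposed to compound about 14 hours before the viability readout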
[18] = target: T4, COUP transcription factor 2 (Homo sapiens, UniProt P24468); experiment: Luminescence-based cell-based high throughput dose response assay to identify inhibitors of COUP-TFII (NR2F2).; format: functional;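 also: HEK293 cells transiently cotransfected with COUP-TFII expression vector and reporter; luciferase reporter luminescence driven by COUP-TFII from the pX2-168 reporter plasmid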
T4 sequence (P24468 whole entry): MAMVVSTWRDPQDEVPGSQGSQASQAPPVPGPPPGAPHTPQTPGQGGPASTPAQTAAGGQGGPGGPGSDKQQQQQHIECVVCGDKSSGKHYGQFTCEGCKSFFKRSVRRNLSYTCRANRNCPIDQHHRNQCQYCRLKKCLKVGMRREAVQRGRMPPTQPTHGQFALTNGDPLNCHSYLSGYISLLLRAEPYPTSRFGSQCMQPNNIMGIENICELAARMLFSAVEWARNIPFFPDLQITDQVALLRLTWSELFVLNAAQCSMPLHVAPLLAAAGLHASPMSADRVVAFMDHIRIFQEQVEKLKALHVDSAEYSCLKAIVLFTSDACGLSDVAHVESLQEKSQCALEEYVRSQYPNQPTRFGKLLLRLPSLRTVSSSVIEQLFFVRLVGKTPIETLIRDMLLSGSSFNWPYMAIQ

[19] = cytotoxicity toward NIH3T3 fibroblasts, dose response, counter-screen, cell-based, ATP luminescence, mouse fibroblasts (AID 2010); format: functional;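 also: cells exposed to compound for about 90 hours before reading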
Caspase-6 = target: T5, Caspase-6 (Homo sapiens, UniProt P55212); experiment: human caspase-6 inhibitors, dose response, biochemical, VEID-R110 fluorescence, cherry-pick (AID 720632)
T5 sequence (P55212 whole entry): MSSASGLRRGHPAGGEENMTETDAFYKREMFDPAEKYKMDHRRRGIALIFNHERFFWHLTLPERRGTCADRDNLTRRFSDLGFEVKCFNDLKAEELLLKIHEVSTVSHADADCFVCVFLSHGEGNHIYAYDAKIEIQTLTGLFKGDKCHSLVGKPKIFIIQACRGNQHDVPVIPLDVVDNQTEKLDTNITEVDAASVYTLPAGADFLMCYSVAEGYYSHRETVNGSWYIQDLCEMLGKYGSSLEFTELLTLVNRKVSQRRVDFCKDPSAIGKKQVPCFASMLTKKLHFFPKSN

[20] = NIH:OVCAR-3 ovarian cancer cell cytotoxicity, dose response, PAX8 inhibitor project, plate reader, dry powder samples (AID 743044); format: functional, cell-based
Paired box protein Pax-8 = Paired box protein Pax-8 (Homo sapiens, UniProt Q06710); experiment: inhibitors of PAX8-driven TPO luciferase reporter, dose response, RMG-I cells, cherry-pick (AID 687027); format: functional, cell-based;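 also: luciferase reporter driven by Pax8 target thyroperoxidase promoter measured by SteadyGlo luminescence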
[21] = cytotoxicity in OVCAR8 ovarian cancer cells, dose response, PAX8 project, cell-based, plate reader, dry powder samples (AID 743197); format: functional; details: OVCAR-8

Chain of Paired box protein Pax-8 (Q06710 whole entry): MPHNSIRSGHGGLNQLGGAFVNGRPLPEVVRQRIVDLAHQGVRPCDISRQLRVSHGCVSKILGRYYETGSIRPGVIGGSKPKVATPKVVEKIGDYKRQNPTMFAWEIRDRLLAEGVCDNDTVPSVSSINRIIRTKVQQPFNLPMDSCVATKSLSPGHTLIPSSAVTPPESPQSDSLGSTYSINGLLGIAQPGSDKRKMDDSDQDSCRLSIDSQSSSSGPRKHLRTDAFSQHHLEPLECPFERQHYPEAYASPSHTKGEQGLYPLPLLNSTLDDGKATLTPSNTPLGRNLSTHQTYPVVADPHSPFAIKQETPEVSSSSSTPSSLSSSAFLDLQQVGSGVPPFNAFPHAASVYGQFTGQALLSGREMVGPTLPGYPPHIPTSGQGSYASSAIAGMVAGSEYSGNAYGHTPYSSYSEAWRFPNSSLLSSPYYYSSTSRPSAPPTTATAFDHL

Cc1ccc(C(c2nnnn2CS(=O)(=O)c2ccc(C)cc2)N2CCCC2)cc1 (centres undefined)
AC50 [1]: 2.35 µM (active)
AC50 [2]: 3.55 µM (active)
AC50 [3]: 3.97 µM (active)
AC50 [4]: 3.22 µM (active)

N=C1c2ccccc2CN1CC(=O)c1ccccc1
EC50 [5]: 10.6 µM (active)
EC50 (H4): 8 µM (active)
EC50 [6]: > 67.6 µM (inactive)

O=C(NCC(O)COc1ccc([N+](=O)[O-])cc1)Nc1ccccc1 (centres undefined)
IC50 [7]: 9.32 µM (active)
IC50 [8]: 83.4 µM (inactive)
IC50 [9]: 15.6 µM (inactive)

Cc1nc2ccccc2n1CCOc1ccc([N+](=O)[O-])cc1
EC50 [10]: > 53 µM (inactive)
IC50 [11]: < 0.368 µM (active)
IC50 [12]: 0.972 µM (active)

N=c1ccn(CC(=O)c2ccc(-c3ccccc3)cc2)cc1
EC50 [13]: 7.33 µM (active)
EC50 [14]: 2.01 µM (active)
EC50 [15]: 9.17 µM (active)
EC50 [16]: 12.3 µM (active)
AC50 (INS1): 1.46 µM (active)
IC50 [17]: > 80 µM (inactive)
IC50 [18]: 9.15 µM (active)
EC50 [19]: > 60 µM (not active)

O=C(O)c1cc([N+](=O)[O-])cc2c1C=Cc1ccccc1O2
AC50 (Caspase-6): 37.5 µM (active)

COCCNC(=O)/C(C#N)=C/c1cc(C)n(C2CCCCC2)c1C
EC50 [6]: > 67.5 µM (inactive)

Cc1ccc(C)c(S(=O)(=O)C(C#N)c2nc3ccccc3nc2N2CCOCC2)c1 (centres undefined)
EC50 [10]: 35.8 µM (active)
IC50 [11]: 39.8 µM (active)
IC50 [12]: > 20 µM (inactive)

COc1ccccc1CN(C)C(=O)C(c1ccccc1)c1ccccc1
EC50 [10]: > 53 µM (inactive)
IC50 [11]: 8.1 µM (active)
IC50 [12]: > 20 µM (inactive)

O=C(NCC(=O)N1CCN(c2ncccn2)CC1)c1ccccc1OC(F)F
AC50 [1]: 13.1 µM (active)
AC50 [2]: 2.86 µM (active)
AC50 [3]: 3.72 µM (active)
AC50 [4]: 2.79 µM (active)

COc1ccccc1-c1c[nH]c(C(O)c2cc(Cl)cc(Cl)c2)n1 (centres undefined)
IC50 [7]: 2.38 µM (active)
IC50 [8]: 83.3 µM (inactive)
IC50 [9]: 3.26 µM (active)

C[C@@H]1CCCCO[C@@H](CN(C)C(=O)Nc2ccc(C(F)(F)F)cc2)[C@H](C)CN([C@H](C)CO)C(=O)c2cc(NS(=O)(=O)c3ccc(Cl)cc3)ccc2O1
AC50 [20]: 27.8 µM (active)
AC50 (Paired box protein Pax-8): 3.25 µM (active)
AC50 [21]: 32 µM (active)

C[C@H]1CN([C@@H](C)CO)C(=O)c2c(c3ccccc3n2C)-c2ccccc2CO[C@H]1CN(C)C(=O)Nc1cccc(F)c1
AC50 [1]: 2.88 µM (active)
AC50 [2]: < 0.26 µM (active)
AC50 [3]: 0.362 µM (active)
AC50 [4]: < 0.26 µM (active)

O=C(CCC(=O)Nc1cccc([N+](=O)[O-])c1)N/N=C/c1cccs1
IC50 [7]: 5.26 µM (active)
IC50 [8]: 83.3 µM (inactive)
IC50 [9]: 8.34 µM (active)

C/C(=N\c1ccccc1)c1sc2ccccc2c1O
EC50 [5]: 2.22 µM (active)
EC50 (H4): 0.153 µM (active)
EC50 [6]: > 67.6 µM (inactive)

Reference: ChEMBL document CHEMBL1201862, “PubChem BioAssay data set” (2004)
